Experimental data taken from PubChem BioAssay AID1259411 (Chemical Carcinogenesis Research Information System (CCRIS), 2018).
Activity calls are given as the source filed them. The rule behind the calls is not given here.

System: rodent carcinogenicity bioassays, tumor incidence
Assay: CCRIS carcinogenicity studies
In short: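 NCI-built, expert-reviewed records of carcinogenicity and related test outcomes (mutagenicity, tumor promotion/inhibition) compiled from published and report sources, historical span 1985-2011, not updated.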

## CN(C)/N=N/c1nc[nH]c1C(N)=O
Species: RAT, Strain/Sex: BUFFALO/FEMALE, Route: ORAL, Dose: 0, 500, MG/KG IN DIET FOR 11 WK, Dose: 0, 500, MG/KG IN DIET FOR 11 WK, Tumor Site: Type of Lesion: MAMMARY GLAND: ADENOCARCINOMA, THYMUS GLAND: LYMPHOSARCOMA
  carcinogen call: active; positive
Species: RAT, Strain/Sex: SPRAGUE-DAWLEY/FEMALE, Route: INTRAPERITONEAL, Dose: 0, 100, 250, 400 MG/RAT IN CITRATE-MANNITOL SOLN, Dose: 0, 100, 250, 400 MG/RAT IN CITRATE-MANNITOL SOLN, Tumor Site: Type of Lesion: MAMMARY GLAND: ADENOCARCINOMA
  carcinogen call: active; positive
Species: RAT, Strain/Sex: SPRAGUE-DAWLEY/FEMALE, Route: ORAL, Dose: 346, 574, 740 MG/KG (TOTAL DOSE), Dose: 346, 574, 740 MG/KG (TOTAL DOSE), Tumor Site: Type of Lesion: MAMMARY GLAND: ADENOCARCINOMA, CARCINOMA, ADENOFIBROMA, THYMUS GLAND: LYMPHOSARCOMA, SPLEEN: LYMPHOSARCOMA, BRAIN: EPEND, Tumor Site: Type of Lesion: MAMMARY GLAND: ADENOCARCINOMA, CARCINOMA, ADENOFIBROMA, THYMUS GLAND: LYMPHOSARCOMA, SPLEEN: LYMPHOSARCOMA, BRAIN: EPEND
  carcinogen call: active; positive
Species: RAT, Strain/Sex: SPRAGUE-DAWLEY/MALE, Route: ORAL, Dose: 608, 974 MG/KG (TOTAL DOSE), Tumor Site: Type of Lesion: MAMMARY GLAND: ADENOCARCINOMA, THYMUS GLAND: LYMPHOSARCOMA, SPLEEN: LYMPHOSARCOMA, Tumor Site: Type of Lesion: MAMMARY GLAND: ADENOCARCINOMA, THYMUS GLAND: LYMPHOSARCOMA, SPLEEN: LYMPHOSARCOMA
  carcinogen call: active; positive

## Cc1cc(N=Nc2c(O)ccc3ccccc23)c(S(=O)(=O)O)cc1Cl
Species: MOUSE, Strain/Sex: B6C3F1/FEMALE, Route: ORAL, Dose: 0, 1000, 2000 PPM IN DIET FOR 103 WK (STUDY DURATION: 103 WK), Dose: 0, 1000, 2000 PPM IN DIET FOR 103 WK (STUDY DURATION: 103 WK)
  carcinogen call: inactive; negative
Species: MOUSE, Strain/Sex: B6C3F1/MALE, Route: ORAL, Dose: 0, 1000, 2000 PPM IN DIET FOR 103 WK (STUDY DURATION: 103 WK), Dose: 0, 1000, 2000 PPM IN DIET FOR 103 WK (STUDY DURATION: 103 WK)
  carcinogen call: inactive; negative
Species: MOUSE, Strain/Sex: ICR/FEMALE, Route: DERMAL, Dose: 0, 1 MG IN 0.1 ML DISTILLED WATER 2/WK FOR A MEAN TOTAL DOSE OF 134.7 MG (STUDY DURATION: 18 MO)
  carcinogen call: inactive; negative
Species: MOUSE, Strain/Sex: ICR/MALE, Route: DERMAL, Dose: 0, 1 MG IN 0.1 ML DISTILLED WATER 2/WK FOR A MEAN TOTAL DOSE OF 134.7 MG (STUDY DURATION: 18 MO)
  carcinogen call: inactive; negative
Species: RAT, Strain/Sex: F344/FEMALE, Route: ORAL, Dose: 0, 1000, 3000 PPM IN DIET FOR 103 WK (STUDY DURATION: 103 WK), Dose: 0, 1000, 3000 PPM IN DIET FOR 103 WK (STUDY DURATION: 103 WK), Tumor Site: Type of Lesion: LIVER: NEOPLASTIC NODULE
  carcinogen call: equivocal
Species: RAT, Strain/Sex: F344/FEMALE, Route: ORAL, Dose: 0, 1000, 3000 PPM IN DIET FOR 103 WK (STUDY DURATION: 104 WK), Dose: 0, 1000, 3000 PPM IN DIET FOR 103 WK (STUDY DURATION: 104 WK)
  carcinogen call: inactive; negative
Species: RAT, Strain/Sex: F344/MALE, Route: ORAL, Dose: 0, 1000, 3000 PPM IN DIET FOR 103 WK (STUDY DURATION: 103 WK), Dose: 0, 1000, 3000 PPM IN DIET FOR 103 WK (STUDY DURATION: 103 WK), Tumor Site: Type of Lesion: SPLEEN: SARCOMA, LIVER: NEOPLASTIC NODULE
  carcinogen call: active; positive
Species: RAT, Strain/Sex: F344/MALE, Route: ORAL, Dose: 0, 1000, 3000 PPM IN DIET FOR 103 WK (STUDY DURATION: 104 WK), Dose: 0, 1000, 3000 PPM IN DIET FOR 103 WK (STUDY DURATION: 104 WK), Tumor Site: Type of Lesion: SPLEEN OR PERITONEUM: SARCOMA
  carcinogen call: active; positive

## O=C1c2cccc(O)c2C(=O)c2c(O)cccc21
Species: MOUSE, Strain/Sex: C3H/HEN/MALE, Route: ORAL, Dose: 0, 0.2% IN DIET FOR DURATION OF STUDY (STUDY DURATION: 540 D), Tumor Site: Type of Lesion: LIVER: HEPATOCELLULAR CARCINOMA
  carcinogen call: active; positive
Species: RAT, Strain/Sex: ACI/MALE, Route: ORAL, Dose: 0, 1% IN DIET FOR DURATION OF STUDY (STUDY DURATION: 16 MO), Tumor Site: Type of Lesion: INTESTINE: ADENOMA OR CARCINOMA
  carcinogen call: active; positive

## O[C@H]1C=Cc2cc3ccc4ccccc4c3nc2[C@@H]1O
Species: MOUSE, Strain/Sex: SWISS/FEMALE, Route: INTRAPERITONEAL, Dose: 0, 1.05 UMOL GIVEN AS 150 NMOL IN 5 µL DMSO WITHIN 24 HR OF BIRTH, 300 NMOL IN 10 µL DMSO ON D 8 OF LIFE, AND 600 NMOL I, Tumor Site: Type of Lesion: LUNG: ADENOMA
  carcinogen call: active; positive
Species: MOUSE, Strain/Sex: SWISS/MALE, Route: INTRAPERITONEAL, Dose: 0, 1.05 UMOL GIVEN AS 150 NMOL IN 5 µL DMSO WITHIN 24 HR OF BIRTH, 300 NMOL IN 10 µL DMSO ON D 8 OF LIFE, AND 600 NMOL I, Tumor Site: Type of Lesion: LUNG: ADENOMA, LIVER: NEOPLASTIC NODULE
  carcinogen call: active; positive

## CC(C)(C)NC[C@H](O)COc1cccc2c1CCCC2=O
Species: MOUSE, Strain/Sex: SWISS/MALE, Route: ORAL, Dose: 0, 12, 50, 200 MG/KG/D IN DIET FOR 80 WK (STUDY DURATION: 80 WK), Dose: 0, 12, 50, 200 MG/KG/D IN DIET FOR 80 WK (STUDY DURATION: 80 WK)
  carcinogen call: inactive; negative
Species: RAT, Strain/Sex: WISTAR/FEMALE, Route: ORAL, Dose: 0, 0.5, 2, 5 MG/KG/D IN DIET FOR 2 YR (STUDY DURATION: 2 YR), Dose: 0, 0.5, 2, 5 MG/KG/D IN DIET FOR 2 YR (STUDY DURATION: 2 YR)
  carcinogen call: inactive; negative
Species: RAT, Strain/Sex: WISTAR/FEMALE, Route: ORAL, Dose: 0, 5, 30, 180 MG/KG/D IN DIET FOR 2 YR (STUDY DURATION: 2 YR), Dose: 0, 5, 30, 180 MG/KG/D IN DIET FOR 2 YR (STUDY DURATION: 2 YR)
  carcinogen call: inactive; negative
Species: RAT, Strain/Sex: WISTAR/MALE, Route: ORAL, Dose: 0, 0.5, 2, 5 MG/KG/D IN DIET FOR 2 YR (STUDY DURATION: 2 YR), Dose: 0, 0.5, 2, 5 MG/KG/D IN DIET FOR 2 YR (STUDY DURATION: 2 YR)
  carcinogen call: inactive; negative
Species: RAT, Strain/Sex: WISTAR/MALE, Route: ORAL, Dose: 0, 5, 30, 180 MG/KG/D IN DIET FOR 2 YR (STUDY DURATION: 2 YR), Dose: 0, 5, 30, 180 MG/KG/D IN DIET FOR 2 YR (STUDY DURATION: 2 YR), Tumor Site: Type of Lesion: LIVER: HEPATOMA
  carcinogen call: active; positive

## O=C/C=C/c1ccccc1
Species: MOUSE, Strain/Sex: B6C3F1/MALE, FEMALE (50/GROUP), Route: ORAL, Dose: 0, 1000, 2100, 4100 PPM MICROENCAPSULATED IN DIET FOR 2 YR (STUDY DURATION: 2 YR), Dose: 0, 1000, 2100, 4100 PPM MICROENCAPSULATED IN DIET FOR 2 YR (STUDY DURATION: 2 YR), Tumor Site: Type of Lesion: NONE
  carcinogen call: inactive; negative
Species: RAT, Strain/Sex: F344/N/MALE, FEMALE (50/GROUP), Route: ORAL, Dose: 0, 1000, 2100, 4100 PPM MICROENCAPSULATED IN DIET FOR 2 YR (STUDY DURATION: 2 YR), Dose: 0, 1000, 2100, 4100 PPM MICROENCAPSULATED IN DIET FOR 2 YR (STUDY DURATION: 2 YR), Tumor Site: Type of Lesion: NONE
  carcinogen call: inactive; negative

## COc1c(Cl)c(Cl)c(Cl)c(Cl)c1Cl
Species: MOUSE, Strain/Sex: B6C3F1/FEMALE, Route: GAVAGE, Dose: 0, 20, 40 MG/KG IN CORN OIL 5 D/WK FOR 104 WK (STUDY DURATION: 105 WK), Dose: 0, 20, 40 MG/KG IN CORN OIL 5 D/WK FOR 104 WK (STUDY DURATION: 105 WK)
  carcinogen call: inactive; negative
Species: MOUSE, Strain/Sex: B6C3F1/MALE, Route: GAVAGE, Dose: 0, 20, 40 MG/KG IN CORN OIL 5 D/WK FOR 104 WK (STUDY DURATION: 105 WK), Dose: 0, 20, 40 MG/KG IN CORN OIL 5 D/WK FOR 104 WK (STUDY DURATION: 105 WK), Tumor Site: Type of Lesion: ADRENAL MEDULLA: BENIGN PHEOCHROMOCYTOMA, LIVER: HEMANGIOSARCOMA
  carcinogen call: active; positive
Species: RAT, Strain/Sex: F344/FEMALE, Route: GAVAGE, Dose: 0, 20, 40 MG/KG IN CORN OIL 5 D/WK FOR 103 WK (STUDY DURATION: 104 WK), Dose: 0, 20, 40 MG/KG IN CORN OIL 5 D/WK FOR 103 WK (STUDY DURATION: 104 WK), Tumor Site: Type of Lesion: ADRENAL MEDULLA: BENIGN PHEOCHROMOCYTOMA
  carcinogen call: equivocal
Species: RAT, Strain/Sex: F344/MALE, Route: GAVAGE, Dose: 0, 10, 20, 40 MG/KG IN CORN OIL 5 D/WK FOR 103 WK (STUDY DURATION: 104 WK), Dose: 0, 10, 20, 40 MG/KG IN CORN OIL 5 D/WK FOR 103 WK (STUDY DURATION: 104 WK), Tumor Site: Type of Lesion: ADRENAL MEDULLA: BENIGN PHEOCHROMOCYTOMA
  carcinogen call: active; positive
